SMILES strings stand for the structures. Activity calls are given as the source filed them.

Test [1] is described as follows: P. falciparum Dd2 growth inhibitors, dose response, SYBR Green, cherry-picked samples (AID 1159567). The class given is functional, cell-based.
Test [2] can be described thus: HepG2 cell cytotoxicity, dose response, cytotoxicity control, cherry-picked samples (AID 1159577). The class given is functional, cell-based.
Test [3] in a line: inhibitors of intracellular T. cruzi replication, confirmation, NIH3T3 host cells, beta-gal luminescence (AID 2044).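 Also: intracellular parasites grown in NIH/3T3 mouse fibroblasts as host cells; luminescent beta-galactosidase reporter signal from transgenic T. cruzi replicating inside host cells; inhibitors lower the luminescence signal.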 The class given is functional, cell-based.
Test [4] can be described thus: cytotoxicity toward NIH3T3 fibroblasts, dose response, counter-screen, cell-based, ATP luminescence, mouse fibroblasts (AID 2010).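 Also: cells exposed to compound for about 90 hours before reading.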 The class given is functional. Background: A counterscreen serves to expose hits that act by an unwanted route or on another target.
The next test relates to HEK293. As to the kind of experiment: inhibitors of LMP1-driven NF-kB reporter, dose response, cell-based, HEK293, luciferase, cherry-pick (AID 588343). The following applies: Homo sapiens. The class given is functional.
Test [5] is described as follows: Shn3 3'UTR reporter inhibitors, dose response, cell-based, Clone20 osteoblasts, firefly luciferase, cherry-picked (AID 624132).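 Also: firefly luciferase luminescence from reporter carrying the Shn3 3'UTR in osteoblasts.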 The class given is functional.
A short description of test [6]: HepG2 cell cytotoxicity, dose response, cytotoxicity control for Shn3 inhibitor project, CellTiter-Glo, cherry-picked (AID 624134). The class given is functional, cell-based.
A short description of test [7]: control 3'UTR Renilla luciferase suppression, dose response, counter-screen for Shn3 inhibitor project, cell-based, Clone20-Shn3RL, cherry-picked (AID 624133). The class given is functional.
A short description of test [8]: P. falciparum 3D7-ScDHODH growth inhibitors, dose response, SYBR Green, dry powder samples (AID 1159570).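 Also: parasite growth measured after 72 hours of compound exposure.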 The class given is functional, cell-based.
Test [9] can be described thus: P. falciparum Dd2 growth inhibitors, dose response, SYBR Green, dry powder samples (AID 1159566).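 Also: potency for growth inhibition with lower SYBR green DNA signal.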 The class given is functional, cell-based.
Test [10] can be described thus: P. falciparum ATP4 D1247Y mutant growth inhibitors, dose response, NITD609-resistant line, SYBR Green, dry powder (AID 1159571).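 Also: parasites synchronized at ring stage by sorbitol before testing.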 The class given is functional, cell-based.
The target in the next test is T1, Leucine aminopeptidase (Plasmodium falciparum 3D7, UniProt Q8IL11).
T1 sequence (Q8IL11 whole entry): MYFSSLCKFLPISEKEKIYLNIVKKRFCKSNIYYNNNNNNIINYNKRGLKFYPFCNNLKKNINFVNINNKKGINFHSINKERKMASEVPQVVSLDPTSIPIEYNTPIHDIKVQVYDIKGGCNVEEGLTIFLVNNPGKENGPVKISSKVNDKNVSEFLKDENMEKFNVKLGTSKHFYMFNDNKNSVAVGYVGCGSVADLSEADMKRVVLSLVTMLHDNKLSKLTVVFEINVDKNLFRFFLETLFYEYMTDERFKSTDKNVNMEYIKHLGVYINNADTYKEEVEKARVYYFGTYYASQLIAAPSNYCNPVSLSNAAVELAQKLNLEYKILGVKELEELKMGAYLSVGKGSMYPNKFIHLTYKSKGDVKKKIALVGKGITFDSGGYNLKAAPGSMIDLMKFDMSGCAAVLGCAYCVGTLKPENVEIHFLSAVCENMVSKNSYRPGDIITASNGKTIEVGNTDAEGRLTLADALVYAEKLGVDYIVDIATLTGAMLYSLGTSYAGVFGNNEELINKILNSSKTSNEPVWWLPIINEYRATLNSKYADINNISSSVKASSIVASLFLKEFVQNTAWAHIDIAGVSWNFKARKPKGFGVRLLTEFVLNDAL
The experiment in a line: P. falciparum M17LAP inhibitors, primary screen, biochemical, fluorogenic H-Leu-NHMec substrate, 1536-well (AID 1619). The class given is functional.

In test [11] the target is T2, Corticotropin-releasing factor receptor 2/Corticotropin-releasing factor-binding protein (Homo sapiens, UniProt P24387+Q13324).
T2 sequence (Q13324 whole entry): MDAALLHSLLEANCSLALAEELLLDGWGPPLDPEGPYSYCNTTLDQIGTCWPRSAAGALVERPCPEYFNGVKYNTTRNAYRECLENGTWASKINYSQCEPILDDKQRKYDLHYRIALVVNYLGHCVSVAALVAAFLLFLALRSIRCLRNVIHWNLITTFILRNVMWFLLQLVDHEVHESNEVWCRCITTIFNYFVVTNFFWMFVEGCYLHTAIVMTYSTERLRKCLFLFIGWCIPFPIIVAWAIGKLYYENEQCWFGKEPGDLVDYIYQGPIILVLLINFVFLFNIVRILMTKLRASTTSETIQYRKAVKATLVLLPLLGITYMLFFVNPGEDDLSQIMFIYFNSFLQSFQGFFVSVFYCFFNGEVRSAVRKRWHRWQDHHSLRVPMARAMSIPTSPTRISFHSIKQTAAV
T2 sequence (P24387 whole entry): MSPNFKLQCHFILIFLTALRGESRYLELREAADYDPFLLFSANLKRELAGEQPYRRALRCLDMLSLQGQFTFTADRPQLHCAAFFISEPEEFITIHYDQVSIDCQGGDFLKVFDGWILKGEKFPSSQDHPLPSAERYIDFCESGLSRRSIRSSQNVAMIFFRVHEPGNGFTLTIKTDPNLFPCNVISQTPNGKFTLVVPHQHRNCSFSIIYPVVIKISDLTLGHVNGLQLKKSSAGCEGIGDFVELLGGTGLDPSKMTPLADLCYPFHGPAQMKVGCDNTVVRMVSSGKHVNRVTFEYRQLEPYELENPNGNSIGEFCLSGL
As to the kind of experiment: Dose Response confirmation of uHTS hits for small molecule antagonists of the CRF-binding protein and CRF-R2 receptor complex. The class given is functional. The following applies: read-out: IC50_Mean.

Test [12] has as its target T2, Corticotropin-releasing factor receptor 2/Corticotropin-releasing factor-binding protein. As to the kind of experiment: activators of CRF receptor 2 with binding protein – uHTS hits, confirmation (AID 602473). The class given is functional. The following applies: read-out: EC50_Mean.
Test [13] can be described thus: CRF-BP/CRF-R2 complex antagonists, dose response, cell-based, uHTS hits, 384-well (AID 651639). The class given is functional, Homo sapiens. The following applies: read-out: IC50_Mean.
The next test concerns H9c2. The experiment in a line: cells. The class given is functional, cell-based. The following applies: Rattus norvegicus, H9c2, Myocardium.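 Also: confirmatory concentration-response retest of ultra-high-throughput screening hits for modulation of myocardial damage; cell death induced by hydrogen peroxide oxidative stress; compound pretreatment for 60 min then peroxide exposure for 2 h; potency is for protecting the cells against peroxide damage rather than for killing them.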
A further test has as its target T3, Protein skinhead-1 (Caenorhabditis elegans, UniProt P34707).
T3 sequence (P34707 whole entry): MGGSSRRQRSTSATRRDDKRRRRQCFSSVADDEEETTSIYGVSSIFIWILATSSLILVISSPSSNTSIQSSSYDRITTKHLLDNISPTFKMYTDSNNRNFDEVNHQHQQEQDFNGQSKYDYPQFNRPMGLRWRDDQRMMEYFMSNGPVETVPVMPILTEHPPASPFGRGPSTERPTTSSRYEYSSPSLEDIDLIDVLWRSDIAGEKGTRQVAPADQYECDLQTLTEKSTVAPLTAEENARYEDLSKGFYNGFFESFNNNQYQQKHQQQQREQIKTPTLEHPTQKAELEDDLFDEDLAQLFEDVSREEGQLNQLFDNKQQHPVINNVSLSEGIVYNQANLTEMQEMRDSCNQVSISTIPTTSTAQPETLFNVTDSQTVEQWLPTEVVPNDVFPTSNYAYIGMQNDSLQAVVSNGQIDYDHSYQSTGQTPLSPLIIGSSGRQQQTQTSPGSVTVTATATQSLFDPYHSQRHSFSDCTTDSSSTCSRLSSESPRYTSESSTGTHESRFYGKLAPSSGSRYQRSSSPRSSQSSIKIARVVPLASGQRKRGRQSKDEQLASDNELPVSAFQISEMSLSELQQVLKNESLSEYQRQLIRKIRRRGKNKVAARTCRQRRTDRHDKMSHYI
The class given is functional.

For the next test, the system named is Vero. The experiment in a line: cells. The following applies: Chlorocebus sabaeus. The class given is functional, cell-based.
A short description of test [14]: HeLa cell cytotoxicity, dose response, cytotoxicity control for MgcRacGAP inhibitor project (AID 624300). The class given is functional.
The target in test [15] is T4, Rac GTPase-activating protein 1 (Homo sapiens, UniProt Q9H0H5).
T4 sequence (Q9H0H5 whole entry): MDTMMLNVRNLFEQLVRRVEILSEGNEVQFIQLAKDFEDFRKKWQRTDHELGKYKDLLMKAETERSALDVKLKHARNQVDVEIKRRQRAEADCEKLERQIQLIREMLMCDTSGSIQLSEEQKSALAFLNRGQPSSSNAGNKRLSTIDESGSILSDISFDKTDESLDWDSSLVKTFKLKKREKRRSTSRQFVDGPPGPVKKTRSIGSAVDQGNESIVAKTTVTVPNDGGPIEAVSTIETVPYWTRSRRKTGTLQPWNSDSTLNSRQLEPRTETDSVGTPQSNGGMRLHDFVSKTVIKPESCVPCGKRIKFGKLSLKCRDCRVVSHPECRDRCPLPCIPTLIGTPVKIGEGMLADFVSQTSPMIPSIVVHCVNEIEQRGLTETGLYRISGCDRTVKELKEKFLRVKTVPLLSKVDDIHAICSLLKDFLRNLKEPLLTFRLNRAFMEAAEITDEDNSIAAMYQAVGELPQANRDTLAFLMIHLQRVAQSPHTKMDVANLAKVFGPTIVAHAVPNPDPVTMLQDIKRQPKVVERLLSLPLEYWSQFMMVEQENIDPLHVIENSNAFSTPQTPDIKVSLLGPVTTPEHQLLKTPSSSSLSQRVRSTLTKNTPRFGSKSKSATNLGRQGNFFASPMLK
The experiment in a line: MgcRacGAP GTPase-activating activity inhibitors, confirmation, biochemical, ADP Hunter fluorescence, primary and confirmatory (AID 624330). The class given is functional.

The target in test [16] is FAD-linked sulfhydryl oxidase ALR (Homo sapiens, UniProt P55789). As to the kind of experiment: inhibitors of human ALR sulfhydryl oxidase, dose response, biochemical, H2O2 detection, luminescence, cherry-pick (AID 493248).
Chain of FAD-linked sulfhydryl oxidase ALR (P55789 whole entry): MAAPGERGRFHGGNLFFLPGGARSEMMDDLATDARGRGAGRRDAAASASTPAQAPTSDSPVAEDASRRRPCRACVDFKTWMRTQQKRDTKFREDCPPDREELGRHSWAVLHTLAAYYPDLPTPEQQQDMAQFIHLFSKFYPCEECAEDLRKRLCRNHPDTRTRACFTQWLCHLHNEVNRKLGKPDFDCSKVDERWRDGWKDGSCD

With `COc1ccc(S(=O)(=O)N2CC[C@@H]3[C@H]2c2cc(C#Cc4ccccc4OC)ccc2N[C@@H]3CO)cc1`, the AC50 was 11.3 µM (active) in test [1] and > 39 µM (inactive) in [2].

As to `COc1ccc(NC(=O)Nc2cccc3c2O[C@H](CN(C)Cc2ccc(-c4ccccc4)cc2)[C@@H](C)CN([C@@H](C)CO)C3=O)cc1`, the AC50 was 3.25 µM (active) in test [1] and 16.2 µM (active) in [2].

For the compound `CCCc1nc2ccc(Br)cc2c(=O)n1-c1ccc([N+](=O)[O-])c(C(F)(F)F)c1`, the EC50 in test [3] was 2 µM (active); in test [4], > 60 µM (not active). In addition, the AC50 in the test on HEK293 was 29.2 µM (active); in [5], 15.7 µM (active); in test [6], 7.4 µM (active); in [7] it was 11.7 µM (active).

For the compound `OC[C@@H]1Nc2ccc(C#Cc3ccccc3)cc2[C@@H]2[C@H]1CCN2Cc1nccs1`, the AC50 in [8] was 3.71 µM (active); in test [1], 2.95 µM (active); in test [9] it was 3.5 µM (active); in test [2], > 39 µM (inactive); in test [10], 3.32 µM (active).

On to `CSc1nc2nc(-c3ccccc3)cc(O)n2n1`, for which the IC50 on Leucine aminopeptidase was 28.6 µM (active).

Regarding `O=C(NCc1cccs1)N[C@@H](Cc1ccccc1)C(=O)O`, the IC50 at Leucine aminopeptidase was 57.6 µM (active).

Regarding `N#C/C(=N\Nc1ccccc1Cl)C(=O)c1ccccc1`, the IC50 in [11] is 10.2 µM (active); in [13] it was > 20 µM (inactive). Also, the EC50 in test [12] is > 53 µM (inactive).

On to `Cc1ccc(-c2csc(Nc3ccc(C(=O)O)cc3)[n+]2Cc2ccccc2)cc1`, for which the IC50 in [11] is 13 µM (active); in test [13], 16.5 µM (active). Further, the EC50 in test [12] is > 53 µM (inactive).

On to `COc1ccc(C#Cc2ccc3c(c2)O[C@@H](CN(C)S(=O)(=O)c2ccccc2F)[C@@H](C)CN([C@H](C)CO)S3(=O)=O)cc1`, for which the AC50 in test [8] is 1.43 µM (active); in [1] it was 1.23 µM (active); in [9], 1.07 µM (active); in test [10] it was 1.16 µM (active).

With `O=c1oc2ccc3ccccc3c2cc1-c1nnc(-c2ccccc2)o1`, the IC50 in the test with H9c2 is > 79 µM (inactive); in test [11], < 0.368 µM (active); on Protein skinhead-1 it was > 100 µM (inactive); in test [13], 0.39 µM (active). For the same compound, the EC50 in test [12] was > 53 µM (inactive).

Turning to `COc1ccc(/C=N/NC(=S)Nc2cccc(C(=O)O)c2)cc1`, the IC50 at Leucine aminopeptidase is 19.6 µM (active).

For `NC(=O)c1ccc(NCc2ccco2)c([N+](=O)[O-])c1`, the values for the IC50 in [11] and in test [13] were 5.79 µM (active) and 3.57 µM (active), respectively. Besides, the EC50 in test [12] is > 53 µM (inactive).

On to `CCCN1C(=O)c2ccccc2NC1c1ccc(OC)c(CSc2ccccn2)c1` (stereo not drawn), for which the IC50 in [11] was 46.2 µM (active); in [13] it was > 20 µM (inactive). Besides, the EC50 in test [12] is > 53 µM (inactive).

Take `COc1cccc2c1C(=O)c1c(O)c3c(c(O)c1C2=O)C[C@@](O)(C(=O)CO)C[C@@H]3OC1CC(N)C(O)C(C)O1` (stereo partly drawn): the IC50 is > 25 µM (active) with Vero and 53.5 µM (active) in test [15]. Further, the half-maximal cytotoxic concentration (CC50) in [14] is 23.5 µM (active).

Turning to `C[C@@H]1CN([C@@H](C)CO)C(=O)Cc2cc(NC(=O)Nc3ccccc3)ccc2O[C@H]1CN(C)Cc1ccc2c(c1)OCO2`, the AC50 in [1] is 3.97 µM (active); in [2] it was > 39 µM (inactive).

On to `OC[C@H]1[C@@H](c2ccc(/C=C/c3ccccc3)cc2)[C@@H]2CN(Cc3cncnc3)CCCCN12`, for which the AC50 is 4.13 µM (active) in test [1] and 20.3 µM (active) in [2].

For `Nc1n[nH]c(N)c1N=Nc1ccccc1`, the IC50 on Leucine aminopeptidase was 7.03 µM (active). In addition, the AC50 in [16] is 6.02 µM (active).

For orientation: AC50 means the concentration giving half of the maximal activity seen. In general, CC50 refers to the concentration giving 50% cytotoxicity.

The values are drawn from ChEMBL document CHEMBL1201862, “PubChem BioAssay data set” (2004).
